Results on 62 molecules are retold here after a melting point compilation (Tetko et al.; mined from patent text by program, amines drawn as free bases though some values may be those of a salt).

Bounds are passed on as bounds.

For orientation: melting point means the temperature, or range, at which the solid turns liquid. The molecule `CNc1ccc(N2C(=O)c3ccccc3C2=O)c(C)c1` showed a melting point of 159 to 161 °C.

In the case of `COc1ccc(CC(=O)NCCc2cccc(OC)c2OC)cc1OC`, the melting point was 80 °C.

`COc1cccc(C2C(C(=O)c3ccc(C)cc3)=C(O)C(=O)N2c2ccc(C)nn2)c1` (configuration not stated): the melting point came out at 265 °C.

`COc1cc2cc3c(nc2cc1OC)CCc1ccc(N)cc1-3` returned a melting point of 185 °C.

Take `O=C(NCCc1cccc(-c2nc(=O)c3ccccc3s2)n1)Nc1ccccc1`: the melting point was 235 to 236 °C.

For `C[C@]1(COc2ccc(N3CCS(=O)CC3)cc2)Cn2cc([N+](=O)[O-])nc2O1`, the melting point was in the range of 198 to 200 °C.

Molecule `COc1cc(N=C=S)nc(OC)c1` registered a melting point of 85 to 86 °C.

On to `O=C1NCc2c1cccc2[N+](=O)[O-]`, for which the melting point lay in the range of 235 to 237 °C.

Regarding `O=C1CC(c2cccc(-n3ccnn3)c2)=Nc2ccc(C#Cc3ccc(F)cc3)cc2N1`, the melting point lay in the range of 246 to 248 °C.

`O=C(Cc1c(-c2cccnc2)c2cc(CN3CCN(c4ccccc4)CC3)c(Cl)cc2oc1=O)Nc1ccc(F)cc1C(F)(F)F` returned a melting point of 202 to 205 °C.

On to `COc1ccc2c(c1)c(-c1ccccc1)cc(=O)n2Cc1c(Cl)cncc1Cl`, for which the melting point fell in the range of 191 to 192 °C.

In the case of `O=C(O)CSc1nc(=O)[nH]cc1F`, the melting point turned out to be 255 °C.

`CCN(Cc1ccc2nc(C)[nH]c(=O)c2c1)C(N)=S` returned a melting point of 186 to 187 °C.

The molecule `CC1(C)CCc2[nH]cc(C(=O)Nc3ccc4c(c3)OCO4)c2C1=O` displayed a melting point of 251 to 252 °C.

In turn, `CC(C)CN1C(=O)CN=C(N2CCN(C)CC2)c2ccccc21` showed a melting point of 134 to 136 °C.

The molecule `O=C(c1ccc(F)cc1)c1cccc(C#Cc2cccc(C(=O)c3ccc(F)cc3)c2)c1` gave a melting point of 205 to 206 °C.

`Fc1ccc(Cn2c(NC3CCN(CCNc4nnnn4-c4ccccc4)CC3)nc3ccccc32)cc1` came in with a melting point of 171 °C.

In turn, `FC(F)(F)c1ccc2nc(-c3csc(Nc4c(Cl)cccc4Cl)n3)[nH]c2c1` showed a melting point of 242 to 243 °C.

On to `CC1Sc2nc(SCc3ccccc3)nn2C1=O` (configuration not stated), for which the melting point is 85 to 87 °C.

Turning to `Cc1c(N2CCN(Cc3ccccc3)CC2)c(F)cc2c(=O)c(C(=O)O)cn(C3CC3)c12`, the melting point was in the range of 209 to 211 °C.

Regarding `CCCCN(CCCC)Cc1nc(-c2ncn3c2[C@@H]2CCN2C(=O)c2c(Cl)cccc2-3)no1`, the melting point is 120 to 125 °C.

Turning to `c1cnc(NC2CCN(C3CCCC3)CC2)nc1`, the melting point turned out to be 118 °C.

`O=C1c2cc([N+](=O)[O-])cc3c(N4CCCC4)c(Cl)cc(c23)C(=O)N1O` showed a melting point of 209 to 210 °C.

Regarding `COC(=O)c1nccnc1Oc1ccccc1C(F)(F)F`, the melting point was 83 to 85 °C.

`CCOC(=O)Cc1c(C(=O)CC)sc2[nH]c(C(=O)CC)cc12` returned a melting point of 147 to 148 °C.

Turning to `O=C1CCC(N2Cc3c(OCc4cccc(CN5CCC(c6ccc(Cl)cc6)CC5)c4)cccc3C2=O)C(=O)N1` (configuration not stated), the melting point lay in the range of 180 to 182 °C.

`CCOC(=O)C(=O)Nc1c(Cl)cc(Cl)c(Cl)c1O` yielded a melting point of 178 °C.

`CCCCOC(=O)c1cc(=NS(=O)(=O)c2ccccc2)c2c(Cl)cc(Cl)cc2[nH]1`: the melting point was 94 to 95 °C.

For the molecule `CCc1cccc(C2=NC(C)(C)CO2)c1C`, the melting point fell in the range of 96 to 98 °C.

Turning to `CS(=O)(=O)Nc1cc(OCCNC2CCCC2)ccc1C(=O)Nc1ccccc1`, the melting point was in the range of 231 to 232 °C.

`CCC(C)Sc1cc(C(F)(F)F)ccc1C(=O)c1cnoc1C1CC1` (configuration not stated): the melting point fell in the range of 75.6 to 76.4 °C.

For the molecule `Cn1ncc(N(CCCCl)Cc2ccccc2)c(Cl)c1=O`, the melting point is 92 to 93 °C.

The molecule `COc1ccc(-n2cnc(SC)n2)cc1` registered a melting point of 54.9 °C.

`COc1cc(OC)nc(Oc2cccc(C(F)(F)F)c2C(=O)O)n1` showed a melting point of 151 to 153 °C.

`CCC(CC)Nc1c([N+](=O)[O-])cc(C)c(C=CN(C)C)c1[N+](=O)[O-]` had a melting point of 100 to 102 °C.

With `CCOC(=O)CON(CC)C(=S)Nc1ccccc1C(C)C`, the melting point lay in the range of 57 to 58 °C.

Molecule `O=C(O)Cc1ccc(NC(=O)C(COc2ccccc2Cl)NS(=O)(=O)c2ccc(I)cc2)cc1` (racemic) gave a melting point of 198 to 200 °C.

`COc1ccc2nc(NC(=O)C(CC3CCCC3)c3ccc(S(=O)(=O)Nc4ccccc4)cc3)sc2n1` (configuration not stated) displayed a melting point of 223 to 226 °C.

In turn, `CCOC(=O)N(C)n1cccc1C(=O)c1ccccc1F` had a melting point of 64 to 66 °C.

Take `CS(=O)(=O)c1ccc(-c2nc(-c3cc4ccccc4o3)[nH]c2-c2ccc(F)cc2)cc1`: the melting point is 235 to 237 °C.

For `CNC(=O)Nc1nc(CC(=O)Nc2cccc(C(F)(F)F)c2)cs1`, the melting point was 200 to 203 °C.

In turn, `CCN(CC)c1ccc(C=O)c(OCCN2CCOCC2)c1` came in with a melting point of 107 to 109 °C.

In turn, `COc1cc(Br)cc([N+](=O)[O-])c1OCc1ccccc1` yielded a melting point of 74 to 76 °C.

Turning to `Cc1cc(-n2cncn2)ccc1N`, the melting point fell in the range of 122 to 125 °C.

`Clc1cc(Cl)cc(-c2n[nH]cc2I)c1` showed a melting point of 170 °C.

Regarding `Cc1[nH]n(C2CCCC2)c2nc(-c3cc[nH]c(=O)c3)nc(=O)c1-2`, the melting point is above 300 °C.

`CCOC(=O)C1=CC(C(=O)c2cc(Cl)ccc2O)=CN2CCc3c([nH]c4ccccc34)C12C(=O)OCC` (configuration not stated) came in with a melting point of 216 °C.

The molecule `O=C1NC(c2ccccc2)CN1S(=O)(=O)c1ccc2c(c1)CCN2C(=S)Nc1ccc(F)cc1` (configuration not stated) gave a melting point of 190 to 192 °C.

With `CCC(CC)c1ccc(Cl)c2nc3n(c12)CCCCN3c1cnc(N(C)C)cc1C`, the melting point fell in the range of 156 to 157 °C.

In turn, `CN1C(=O)[C@H](NC(=O)CCc2ccc(Cl)cc2Cl)N=C(c2ccccc2)c2ccccc21` gave a melting point of 92 to 95 °C.

The molecule `COc1cccc(CC(=O)O)c1OCc1cc(OCc2ccc3ccccc3n2)n(C(C)C)n1` displayed a melting point of 84 to 85 °C.

`COC(=O)C(Oc1ccc(C(C)(C)C)cc1)c1ccc(Oc2ccc(Cl)cc2)cc1` (configuration not stated) came in with a melting point of 118 to 120 °C.

On to `NNC(=O)C(Cl)(Cl)c1cccc(Cl)n1`, for which the melting point is 198 to 200 °C.

`O=CN(Cn1cc(Cl)cnc1=O)c1ccccc1` yielded a melting point of 200 °C.

As for `O=C(NCc1ccccc1)c1cn2c(=O)n(Cc3ccc(Cl)cc3)c(=O)cc2s1`, the melting point was above 220 °C.

Molecule `CC(=O)C1CCC2C3CCC4=CC(=O)CCC4(C)C3C(Cl)CC12C` (configuration not stated) registered a melting point of 185 to 188 °C.

Molecule `CC(=O)C(Cl)=NNc1cccc(C)c1` displayed a melting point of 144 to 146 °C.

The molecule `O=C(OCCOCn1cnc2c(Cl)nc(Cl)nc21)c1ccccc1` showed a melting point of 121 to 125 °C.

With `OC1CSC(Oc2ccc(-c3ccncc3)nc2)C(O)C1O` (configuration not stated), the melting point worked out at 248 °C.

`OC(c1cccc(C(F)(F)F)c1)C1CCN(CCc2ccccc2)CC1` (configuration not stated) registered a melting point of 143 to 147 °C.

Turning to `COc1ccc(Oc2c(-c3ccc(S(C)(=O)=O)cc3)cnn(CC(F)(F)F)c2=O)cc1`, the melting point fell in the range of 194 to 195 °C.

In turn, `CC(C)(Oc1ccc(Cl)cc1)C(C)(O)c1cccnc1` (configuration not stated) showed a melting point of 140 to 141 °C.
